The source of these data is US11986471B2, “Compounds and methods of use” (Tango Therapeutics, Inc., priority 2018, dated 2024).

For test [1], the target named is T1, PRMT5 (Homo sapiens, UniProt O14744).
T1 construct: purchased Viva (custom protein)
Description: PRMT5 IC50 assay with no cofactor. It is filed as biochemical. The method, boiled down: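 Cofactor-free, SAM and MTA formats; IC50 μM; Ki = IC50/1.5 for SAM, IC50/13.5 for MTA.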

The target in test [2] is T1, PRMT5. Put plainly: PRMT5 IC50 assay in the presence of SAM as cofactor. It is filed as biochemical. The method, boiled down:
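Results given as IC50 (μM), from which Ki follows by dividing by 1.5 in the SAM condition or by 13.5 in the MTA condition. The ratio of SAM Ki to MTA Ki indicates MTA-cooperative preference.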

Test [3] deals with T1, PRMT5. Put plainly: PRMT5 IC50 assay in the presence of MTA as cofactor. It counts as biochemical. To be noted: for IC50: PRMT5, MTA as cofactor. A digest of the protocol:
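Potency against PRMT5 is compared across cofactor states, where IC50 equals Ki×1.5 with SAM present and Ki×13.5 with MTA present.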

Test [4] deals with HAP1 MTAP-deleted. Put plainly: SDMA in-cell western assay, HAP1 MTAP-deleted cell line. It counts as cell-based. The note with it: for IC50: Homo sapiens, HAP1 MTAP-deleted cell line; for MTAP Intact/Deleted Ratio: IC50 ratio HAP1 MTAP-intact / HAP1 MTAP-deleted. The method, boiled down: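 Readout is cellular SDMA signal by in-cell western, with IC50 values derived from it. The cells are MTAP-null HAP1, matched to an isogenic MTAP-intact HAP1 line.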

Test [5] has as its system HAP1 MTAP-intact. Description: SDMA in-cell western assay, HAP1 MTAP-intact cell line. It is filed as cell-based. The note with it: Homo sapiens. A digest of the protocol:
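IC50 values come from SDMA in-cell western staining of HAP1 cells. The MTAP-intact line carries endogenous MTAP, while its MTAP-deleted counterpart lacks MTAP entirely. A selectivity ratio of at least 3 fold marks a compound as MTAP-selective.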

Where [6] appears, read: ratio between the Ki in the presence of SAM and the Ki in the presence of MTA.
Setting [7] is: ratio between Ki in the presence of SAM and Ki in the presence of MTA.

T1 sequence (O14744 whole entry): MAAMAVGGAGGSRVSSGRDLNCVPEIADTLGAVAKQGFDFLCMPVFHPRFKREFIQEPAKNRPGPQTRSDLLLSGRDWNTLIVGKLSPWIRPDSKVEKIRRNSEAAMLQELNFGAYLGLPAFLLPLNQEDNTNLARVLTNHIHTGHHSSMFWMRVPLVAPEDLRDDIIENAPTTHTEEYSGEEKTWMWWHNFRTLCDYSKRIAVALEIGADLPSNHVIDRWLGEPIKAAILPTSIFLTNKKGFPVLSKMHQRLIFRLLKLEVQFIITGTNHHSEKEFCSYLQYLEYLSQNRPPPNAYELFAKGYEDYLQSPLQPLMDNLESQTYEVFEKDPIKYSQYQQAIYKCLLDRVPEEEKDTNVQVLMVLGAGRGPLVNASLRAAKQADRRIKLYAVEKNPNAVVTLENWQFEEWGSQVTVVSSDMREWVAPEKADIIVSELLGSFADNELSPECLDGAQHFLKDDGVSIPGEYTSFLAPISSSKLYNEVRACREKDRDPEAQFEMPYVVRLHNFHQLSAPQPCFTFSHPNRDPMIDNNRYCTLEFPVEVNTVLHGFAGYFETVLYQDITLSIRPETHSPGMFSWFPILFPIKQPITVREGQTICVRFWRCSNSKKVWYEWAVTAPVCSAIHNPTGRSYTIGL
T1 sequence (Q9BQA1 whole entry partner): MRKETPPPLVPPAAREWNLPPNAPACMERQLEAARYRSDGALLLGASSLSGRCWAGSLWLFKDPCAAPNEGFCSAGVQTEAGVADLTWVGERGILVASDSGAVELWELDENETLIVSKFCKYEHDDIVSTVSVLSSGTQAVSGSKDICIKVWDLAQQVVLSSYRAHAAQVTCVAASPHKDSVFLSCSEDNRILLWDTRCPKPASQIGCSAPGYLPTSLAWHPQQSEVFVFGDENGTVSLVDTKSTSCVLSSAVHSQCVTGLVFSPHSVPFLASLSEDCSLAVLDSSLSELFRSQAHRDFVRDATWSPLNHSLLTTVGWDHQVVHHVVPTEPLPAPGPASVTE

`Cc1ncoc1COc1ccc2c(c1C)CCN(C[C@@H](O)CNC(=O)c1cc(NC3COC3)nc(N3CCN(C)CC3)n1)C2` [Compound 456, N-[(2S)-2-hydroxy-3-{5-methyl-6-[(4-methyl-1,3-oxazol-5-yl)methoxy]-1,2,3,4-tetrahydroisoquinolin-2-yl}propyl]-2-(4-methylpiperazin-1-yl)-6-[(oxetan-3-yl)amino]pyrimidine-4-carboxamide]: the concentration for half-maximal inhibition (IC50) in test [1] was not below 5000 nM; in test [2], 50 to 500 nM; in test [3], 50 to 500 nM; in test [4], 1000 to 10000 nM; in test [5], not below 10000 nM. For the same compound, in test [3] (setting [6]), the “SAM/MTA Ratio” value is “A (a Ki ratio greater than or equal to 10 fold between the Ki in the presence of SAM and the Ki in the presence of MTA)”. Also, in test [4], the “MTAP Intact/Deleted Ratio” value is “C* (an IC50 ratio of less than 3 fold between the IC50 in the HAP1 MTAP-intact cell line and the HAP1 MTAP-deleted cell line)”.
As to `CC(=O)N1CCC(Nc2cc(C(=O)NC[C@H](O)CN3CCc4cc(OCc5ocnc5C)ccc4C3)ccn2)CC1` [Compound 622, (S)-2-((1-acetylpiperidin-4-yl)amino)-N-(2-hydroxy-3-(6-((4-methyloxazol-5-yl)methoxy)-3,4-dihydroisoquinolin-2(1H)-yl)propyl)isonicotinamide], the IC50 in test [1] was 500 to 5000 nM; in test [2], 50 to 500 nM; in test [3] it was less than 50 nM; in test [4], less than 1000 nM; in test [5], not below 10000 nM. The “SAM/MTA Ratio” value in test [3] (setting [6]) is “A (a Ki ratio greater than or equal to 10 fold between the Ki in the presence of SAM and the Ki in the presence of MTA)”. Also, the “MTAP Intact/Deleted Ratio” value in test [4] was “A* (an IC50 ratio greater than or equal to 10 fold between the IC50 in the HAP1 MTAP-intact cell line and the HAP1 MTAP-deleted cell line)”.
Turning to `CCN(C)c1cc(C(=O)NC[C@H](O)CN2CCc3cc(OCc4ocnc4C)ccc3C2)cc(NC2CCC2)n1` [Compound 489, 2-(cyclobutylamino)-6-[ethyl(methyl)amino]-N-[(2S)-2-hydroxy-3-{6-[(4-methyl-1,3-oxazol-5-yl)methoxy]-1,2,3,4-tetrahydroisoquinolin-2-yl}propyl]pyridine-4-carboxamide], the IC50 was not below 5000 nM in test [1]; 500 to 5000 nM in test [2]; 50 to 500 nM in test [3]; 1000 to 10000 nM in test [4]; not below 10000 nM in test [5]. For the same compound, the “SAM/MTA Ratio” value in test [3] (setting [6]) was “A (a Ki ratio greater than or equal to 10 fold between the Ki in the presence of SAM and the Ki in the presence of MTA)”. In test [4], the “MTAP Intact/Deleted Ratio” value is “B* (an IC50 ratio greater than or equal to 3 fold but lower than 10 fold between the IC50 in the HAP1 MTAP-intact cell line and the HAP1 MTAP-deleted cell line)”.
Turning to `CC(=O)N1CCC(Nc2cc(C(=O)NC[C@H](O)CN3CCc4cc(OCc5ocnc5C)ccc4C3)cc(N3CCN(C)CC3)n2)CC1` [Compound 584, 2-[(1-acetylpiperidin-4-yl)amino]-N-[(2S)-2-hydroxy-3-{6-[(4-methyl-1,3-oxazol-5-yl)methoxy]-1,2,3,4-tetrahydroisoquinolin-2-yl}propyl]-6-(4-methylpiperazin-1-yl)pyridine-4-carboxamide], the IC50 is 50 to 500 nM in test [1]; 50 to 500 nM in test [2]; 50 to 500 nM in test [3]; 1000 to 10000 nM in test [4]; not below 10000 nM in test [5]. Also, the “SAM/MTA Ratio” value in test [3] (setting [6]) is “A (a Ki ratio greater than or equal to 10 fold between the Ki in the presence of SAM and the Ki in the presence of MTA)”. Moreover, in test [4], the “MTAP Intact/Deleted Ratio” value is “B* (an IC50 ratio greater than or equal to 3 fold but lower than 10 fold between the IC50 in the HAP1 MTAP-intact cell line and the HAP1 MTAP-deleted cell line)”.
Regarding `CCN(C)c1cc(C(=O)NC[C@H](O)CN2CCc3c(ccc(OCc4cnco4)c3Cl)C2)cc(NC2CCC2)n1` [Compound 445, (S)—N-(3-(5-chloro-6-(oxazol-5-ylmethoxy)-3N-dihydroisoquinolin-2(1H)-yl)-2-hydroxypropyl)-2-(cyclobutylamino)-6-(ethyl(methyl)amino)isonicotinamide], the IC50 in test [1] was not below 5000 nM; in test [2] it was 500 to 5000 nM; in test [3], 50 to 500 nM; in test [4], not below 10000 nM; in test [5] it was not below 10000 nM. Also, in test [3] (setting [6]), the “SAM/MTA Ratio” value was “A (a Ki ratio greater than or equal to 10 fold between the Ki in the presence of SAM and the Ki in the presence of MTA)”. Besides, the “MTAP Intact/Deleted Ratio” value in test [4] is “C* (an IC50 ratio of less than 3 fold between the IC50 in the HAP1 MTAP-intact cell line and the HAP1 MTAP-deleted cell line)”.
On to `Cc1ncoc1COc1ccc2c(c1C)CCN(C[C@@H](O)CNC(=O)c1cc(NC3COC3)nc(N3CCOCC3)n1)C2` [Compound 423, N-[(2S)-2-hydroxy-3-{5-methyl-6-[(4-methyl-1,3-oxazol-5-yl)methoxy]-1,2,3,4-tetrahydroisoquinolin-2-yl}propyl]-2-(morpholin-4-yl)-6-[(oxetan-3-yl)amino]pyrimidine-4-carboxamide], for which the IC50 is not below 5000 nM in test [1] (read-out: No Co-factor IC50); 500 to 5000 nM in test [2]; 50 to 500 nM in test [3]; 1000 to 10000 nM in test [4]; not below 10000 nM in test [5]. The “SAM/MTA Ratio” value in test [3] (setting [7]) was “A (a Ki ratio greater than or equal to 10 fold between the Ki in the presence of SAM and the Ki in the presence of MTA)”. The “MTAP Intact/Deleted Ratio” value in test [4] was “C* (an IC50 ratio of less than 3 fold between the IC50 in the HAP1 MTAP-intact cell line and the HAP1 MTAP-deleted cell line)”.
As for `Cc1ncoc1COc1cc(F)c2c(c1C)CCN(C[C@@H](O)CNC(=O)c1ccnc(NC3CCC3)c1)C2` [Compound 619, 2-(cyclobutylamino)-N-[(2S)-3-[8-fluoro-5-methyl-6-[(4-methyloxazol-5-yl)methoxy]-3,4-dihydro-1H-isoquinolin-2-yl]-2-hydroxy-propyl]pyridine-4-carboxamide], the 50% inhibitory concentration (IC50) in test [1] is 500 to 5000 nM; in test [2], 50 to 500 nM; in test [3], 50 to 500 nM; in test [4], 1000 to 10000 nM; in test [5] it was not below 10000 nM. The “MTAP Intact/Deleted Ratio” value in test [4] was “C* (an IC50 ratio of less than 3 fold between the IC50 in the HAP1 MTAP-intact cell line and the HAP1 MTAP-deleted cell line)”.
Turning to `CC(=O)N1CCC(Nc2cc(C(=O)NC[C@H](O)CN3CCc4c(ccc(OCc5ccnn5C)c4Cl)C3)ncn2)CC1` [Compound 242, (S)-6-((1-acetylpiperidin-4-yl)amino)-N-(3-(5-chloro-6-((1-methyl-1H-pyrazol-5-yl)methoxy)-3,4-dihydroisoquinolin-2(1H)-yl)-2-hydroxypropyl)pyrimidine-4-carboxamide], the IC50 in test [1] (read-out: No Co-factor IC50) was not below 5000 nM; in test [2], 500 to 5000 nM; in test [3] it was 500 to 5000 nM; in test [4], not below 10000 nM; in test [5], not below 10000 nM. In addition, in test [4], the “MTAP Intact/Deleted Ratio” value is “C* (an IC50 ratio of less than 3 fold between the IC50 in the HAP1 MTAP-intact cell line and the HAP1 MTAP-deleted cell line)”.
`Cc1c(OCc2cnco2)ccc2c1CCN(C[C@@H](O)CNC(=O)c1ccnc(NC3CCCC3)c1)C2` [Compound 356, 2-(cyclopentylamino)-N-[(2S)-2-hydroxy-3-{5-methyl-6-[(1,3-oxazol-5-yl)methoxy]-1,2,3,4-tetrahydroisoquinolin-2-yl}propyl]pyridine-4-carboxamide]: the IC50 in test [1] (read-out: No Co-factor IC50) was not below 5000 nM; in test [2], 50 to 500 nM; in test [3], 50 to 500 nM; in test [4] it was not below 10000 nM; in test [5], not below 10000 nM. In addition, in test [3] (setting [7]), the “SAM/MTA Ratio” value is “A (a Ki ratio greater than or equal to 10 fold between the Ki in the presence of SAM and the Ki in the presence of MTA)”. In test [4], the “MTAP Intact/Deleted Ratio” value was “C* (an IC50 ratio of less than 3 fold between the IC50 in the HAP1 MTAP-intact cell line and the HAP1 MTAP-deleted cell line)”.
Turning to `Cc1ncoc1COc1ccc2c(c1)CCN(C[C@@H](O)CNC(=O)c1cc(NC3CCC3)ccn1)C2` [Compound 516, 4-(cyclobutylamino)-N-[(2S)-2-hydroxy-3-(6-[(4-methyl-1,3-oxazol-5-yl)methoxy]-1,2,3,4-tetrahydroisoquinolin-2-yl}propyl]pyridine-2-carboxamide], the IC50 in test [1] was 500 to 5000 nM; in test [2], 50 to 500 nM; in test [3], 50 to 500 nM; in test [4], less than 1000 nM; in test [5], less than 1000 nM. The “SAM/MTA Ratio” value in test [3] (setting [6]) is “A (a Ki ratio greater than or equal to 10 fold between the Ki in the presence of SAM and the Ki in the presence of MTA)”. Further, in test [4], the “MTAP Intact/Deleted Ratio” value was “C* (an IC50 ratio of less than 3 fold between the IC50 in the HAP1 MTAP-intact cell line and the HAP1 MTAP-deleted cell line)”.
`Cc1ncoc1COc1ccc2c(c1Cl)CCN(C[C@@H](O)CNC(=O)c1cc(NC3CCCCC3)ncn1)C2` [Compound 501, N-[(2S)-3-[5-chloro-6-[(4-methyl-1,3-oxazol-5-yl)methoxy]-1,2,3,4-tetrahydroisoquinolin-2-yl]-2-hydroxypropyl]-6-(cyclohexylamino)pyrimidine-4-carboxamide]: the IC50 in test [1] is not below 5000 nM; in test [2] it was 50 to 500 nM; in test [3], 50 to 500 nM; in test [4], not below 10000 nM; in test [5], not below 10000 nM. Also, in test [3] (setting [6]), the “SAM/MTA Ratio” value is “A (a Ki ratio greater than or equal to 10 fold between the Ki in the presence of SAM and the Ki in the presence of MTA)”. The “MTAP Intact/Deleted Ratio” value in test [4] is “C* (an IC50 ratio of less than 3 fold between the IC50 in the HAP1 MTAP-intact cell line and the HAP1 MTAP-deleted cell line)”.
